Our source for the IC50 values is publication PMC10452266, “Divergent Pharmacology and Biased Signaling of the Four Melanocortin-4 Receptor Isoforms in Rainbow Trout (Oncorhynchus mykiss)” (Biomolecules, 2023).

The structures appear in SMILES notation.

The assay deals with T1, hMC4R (Homo sapiens, UniProt P32245).
T1 construct: expressed in transfected cells; host or cells: HEK293T
Briefly: Ligand-binding assay (displacement of 125I-NDP-MSH), hMC4R. Here is the method: Cells were plated into 24-well or 6-well plates pre-coated with 0.1% gelatin and transfected with plasmids by the calcium phosphate precipitation method.
A binding assay was conducted as described previously.
Binding assays were used to investigate the binding properties of omMc4rs. […] Data are expressed as % of hMC4R binding ± range from duplicate measurements within one experiment. The curves are representative of at least three independent experiments.
A general note: Loss of bound radioactivity is the signal in a displacement assay; it reports binding, not function.

T1 sequence (P32245 whole entry): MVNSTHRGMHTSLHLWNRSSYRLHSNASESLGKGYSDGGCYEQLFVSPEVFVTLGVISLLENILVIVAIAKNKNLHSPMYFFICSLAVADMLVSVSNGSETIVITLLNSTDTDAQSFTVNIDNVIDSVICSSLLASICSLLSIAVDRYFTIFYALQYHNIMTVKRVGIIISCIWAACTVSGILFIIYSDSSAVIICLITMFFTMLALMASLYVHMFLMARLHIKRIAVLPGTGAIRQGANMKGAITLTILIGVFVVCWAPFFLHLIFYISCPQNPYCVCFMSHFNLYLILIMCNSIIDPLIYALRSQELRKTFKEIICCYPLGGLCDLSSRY

Compound `CSCC[C@@H]1NC(=O)[C@H](C)NC(=O)[C@H]([C@@H](C)O)NC(=O)CNC(=O)[C@H](CC(C)C)NC(=O)[C@H](CCCCN)NC(=O)[C@H](CCCNC(=N)N)NC(=O)[C@@H]2CSSC[C@@H]3NC(=O)[C@@H]4CCCN4C(=O)[C@H](C(C)C)NC(=O)[C@H](CCC(N)=O)NC(=O)[C@H](CCC(N)=O)NC(=O)CNC(=O)[C@H](CC(C)C)NC(=O)[C@@H]4CSSC[C@H](NC(=O)[C@H]([C@@H](C)O)NC(=O)[C@H](C)NC(=O)[C@H](CSSC[C@@H](C(=O)N[C@@H](CO)C(=O)N[C@@H](CCCNC(=N)N)C(=O)N[C@H](C(=O)O)[C@@H](C)O)NC(=O)[C@@H]5CCCN5C(=O)[C@H](CC(N)=O)NC1=O)NC(=O)[C@@H]1CCCN1C(=O)[C@H](CC(=O)O)NC(=O)[C@H](CSSC[C@H](NC(=O)[C@H](CCCNC(=N)N)NC(=O)[C@H](CCCNC(=N)N)NC(=O)[C@H](CO)NC(=O)[C@@H](N)CO)C(=O)N[C@@H](C(C)C)C(=O)N[C@@H](CCCNC(=N)N)C(=O)N[C@@H](CC(C)C)C(=O)N[C@@H](Cc1c[nH]cn1)C(=O)N[C@@H](CCC(=O)O)C(=O)N[C@@H](CO)C(=O)N4)NC3=O)C(=O)N[C@@H](Cc1ccc(O)cc1)C(=O)N[C@H]1CSSC[C@H](NC(=O)[C@H](Cc3ccccc3)NC(=O)[C@H](C)NC(=O)[C@H](CC(N)=O)NC(=O)[C@H](Cc3ccccc3)NC(=O)[C@H](Cc3ccccc3)NC(=O)[C@H](CCCNC(=N)N)NC1=O)C(=O)N[C@@H](Cc1ccc(O)cc1)C(=O)N2` [AgRP] registered an IC50 of 32.5 ± 7.76 nM.

In general, IC50 refers to the concentration that gives 50% inhibition. Higher therefore signals weaker potency.
